Data: ChEMBL document CHEMBL3045059, “Efficacy of ketoenols on insecticide resistant field populations of two-spotted spider mite Tetranychus urticae and sweet potato whitefly Bemisia tabaci from Greece” (2012)
Converted amounts (≈) assume the structure as drawn.

Experiments:
Type in all cases: functional
Bemisia tabaci [1] = assay: Resistance ratio, ratio of alpha-cypermethrin LC50 to compound LC50 for second-instar nymph stage of Bemisia tabaci (sweet potato whitefly) greenhouse population GR192
Bemisia tabaci [2] = assay: Resistance ratio, ratio of imidacloprid LC50 to compound LC50 for second-instar nymph stage of Bemisia tabaci (sweet potato whitefly) greenhouse population GR192
Bemisia tabaci [3] = assay: Resistance ratio, ratio of imidacloprid LC50 to compound LC50 for second-instar nymph stage of Bemisia tabaci (sweet potato whitefly) greenhouse population GR165
Bemisia tabaci [4] = assay: Acaricidal activity against second-instar nymph stage of Bemisia tabaci (sweet potato whitefly) laboratory strain GRMAL-RN in cotton leaves assessed as mortality incubated for 5 secs measured after 10 to 12 days
Bemisia tabaci [5] = assay: Acaricidal activity against second-instar nymph stage of Bemisia tabaci (sweet potato whitefly) laboratory strain GRMAL-RP in cotton leaves assessed as mortality incubated for 5 secs measured after 10 to 12 days
Bemisia tabaci [6] = assay: Acaricidal activity against second-instar nymph stage of Bemisia tabaci (sweet potato whitefly) greenhouse population GR192 in cotton leaves assessed as mortality incubated for 5 secs measured after 10 to 12 days
Bemisia tabaci [7] = assay: Acaricidal activity against second-instar nymph stage of Bemisia tabaci (sweet potato whitefly) greenhouse population GR258 in cotton leaves assessed as mortality incubated for 5 secs measured after 10 to 12 days
Bemisia tabaci [8] = assay: (§1) Acaricidal activity against second-instar nymph stage of Bemisia tabaci (sweet potato whitefly) greenhouse population GR164 in cotton leaves assessed as mortality incubated for 5 secs measured after 10 to 12 days
Bemisia tabaci [9] = assay: Acaricidal activity against second-instar nymph stage of Bemisia tabaci (sweet potato whitefly) field population GR163 in cotton leaves assessed as mortality incubated for 5 secs measured after 10 to 12 days
Bemisia tabaci [10] = assay: Acaricidal activity against second-instar nymph stage of Bemisia tabaci (sweet potato whitefly) field population GR259 in cotton leaves assessed as mortality incubated for 5 secs measured after 10 to 12 days
Bemisia tabaci [11] = assay: Acaricidal activity against second-instar nymph stage of Bemisia tabaci (sweet potato whitefly) greenhouse population GR194 in cotton leaves assessed as mortality incubated for 5 secs measured after 10 to 12 days
Bemisia tabaci [12] = assay: Acaricidal activity against second-instar nymph stage of Bemisia tabaci (sweet potato whitefly) greenhouse population GR188 in cotton leaves assessed as mortality incubated for 5 secs measured after 10 to 12 days
Bemisia tabaci [13] = assay: Acaricidal activity against second-instar nymph stage of Bemisia tabaci (sweet potato whitefly) field population GR157 in cotton leaves assessed as mortality incubated for 5 secs measured after 10 to 12 days
Bemisia tabaci [14] = assay: Acaricidal activity against second-instar nymph stage of Bemisia tabaci (sweet potato whitefly) greenhouse population GR191 in cotton leaves assessed as mortality incubated for 5 secs measured after 10 to 12 days
Bemisia tabaci [15] = assay: Acaricidal activity against second-instar nymph stage of Bemisia tabaci (sweet potato whitefly) greenhouse population GR187 in cotton leaves assessed as mortality incubated for 5 secs measured after 10 to 12 days
Bemisia tabaci [16] = assay: Acaricidal activity against second-instar nymph stage of Bemisia tabaci (sweet potato whitefly) greenhouse population GR165 in cotton leaves assessed as mortality incubated for 5 secs measured after 10 to 12 days
Bemisia tabaci [17] = assay: as §1, with “survival of the parent population at 30 mg/l” for “mortality”, “days by applying constant selection pressure under laboratory conditions” for “days”
Bemisia tabaci [18] = assay: as §1, with “survival at 30 mg/l at the last selection cycle of four generations” for “mortality”, “days by applying constant selection pressure under laboratory conditions” for “days”
Bemisia tabaci [19] = assay: Resistance ratio, ratio of alpha-cypermethrin LC50 to compound LC50 for second-instar nymph stage of Bemisia tabaci (sweet potato whitefly) laboratory strain GRMAL-RP
Bemisia tabaci [20] = assay: Resistance ratio, ratio of alpha-cypermethrin LC50 to compound LC50 for second-instar nymph stage of Bemisia tabaci (sweet potato whitefly) greenhouse population GR258
Bemisia tabaci [21] = assay: Resistance ratio, ratio of alpha-cypermethrin LC50 to compound LC50 for second-instar nymph stage of Bemisia tabaci (sweet potato whitefly) greenhouse population GR164
Bemisia tabaci [22] = assay: Resistance ratio, ratio of alpha-cypermethrin LC50 to compound LC50 for second-instar nymph stage of Bemisia tabaci (sweet potato whitefly) field population GR259
Bemisia tabaci [23] = assay: Resistance ratio, ratio of alpha-cypermethrin LC50 to compound LC50 for second-instar nymph stage of Bemisia tabaci (sweet potato whitefly) field population GR163
Bemisia tabaci [24] = assay: Resistance ratio, ratio of alpha-cypermethrin LC50 to compound LC50 for second-instar nymph stage of Bemisia tabaci (sweet potato whitefly) greenhouse population GR194
Bemisia tabaci [25] = assay: Resistance ratio, ratio of alpha-cypermethrin LC50 to compound LC50 for second-instar nymph stage of Bemisia tabaci (sweet potato whitefly) greenhouse population GR188
Bemisia tabaci [26] = assay: Resistance ratio, ratio of alpha-cypermethrin LC50 to compound LC50 for second-instar nymph stage of Bemisia tabaci (sweet potato whitefly) field population GR157
Bemisia tabaci [27] = assay: Resistance ratio, ratio of alpha-cypermethrin LC50 to compound LC50 for second-instar nymph stage of Bemisia tabaci (sweet potato whitefly) greenhouse population GR191
Bemisia tabaci [28] = assay: Resistance ratio, ratio of alpha-cypermethrin LC50 to compound LC50 for second-instar nymph stage of Bemisia tabaci (sweet potato whitefly) greenhouse population GR165
Bemisia tabaci [29] = assay: Resistance ratio, ratio of alpha-cypermethrin LC50 to compound LC50 for second-instar nymph stage of Bemisia tabaci (sweet potato whitefly) greenhouse population GR187
Bemisia tabaci [30] = assay: Resistance ratio, ratio of imidacloprid LC50 to compound LC50 for second-instar nymph stage of Bemisia tabaci (sweet potato whitefly) laboratory strain GRMAL-RN
Bemisia tabaci [31] = assay: Resistance ratio, ratio of imidacloprid LC50 to compound LC50 for second-instar nymph stage of Bemisia tabaci (sweet potato whitefly) greenhouse population GR258
Bemisia tabaci [32] = assay: Resistance ratio, ratio of imidacloprid LC50 to compound LC50 for second-instar nymph stage of Bemisia tabaci (sweet potato whitefly) field population GR163
Bemisia tabaci [33] = assay: Resistance ratio, ratio of imidacloprid LC50 to compound LC50 for second-instar nymph stage of Bemisia tabaci (sweet potato whitefly) greenhouse population GR164
Bemisia tabaci [34] = assay: Resistance ratio, ratio of imidacloprid LC50 to compound LC50 for second-instar nymph stage of Bemisia tabaci (sweet potato whitefly) field population GR259
Bemisia tabaci [35] = assay: Resistance ratio, ratio of imidacloprid LC50 to compound LC50 for second-instar nymph stage of Bemisia tabaci (sweet potato whitefly) greenhouse population GR194
Bemisia tabaci [36] = assay: Resistance ratio, ratio of imidacloprid LC50 to compound LC50 for second-instar nymph stage of Bemisia tabaci (sweet potato whitefly) greenhouse population GR188
Bemisia tabaci [37] = assay: Resistance ratio, ratio of imidacloprid LC50 to compound LC50 for second-instar nymph stage of Bemisia tabaci (sweet potato whitefly) greenhouse population GR191
Bemisia tabaci [38] = assay: Resistance ratio, ratio of imidacloprid LC50 to compound LC50 for second-instar nymph stage of Bemisia tabaci (sweet potato whitefly) field population GR157
Bemisia tabaci [39] = assay: Resistance ratio, ratio of imidacloprid LC50 to compound LC50 for second-instar nymph stage of Bemisia tabaci (sweet potato whitefly) greenhouse population GR187

In the case of `Cc1cc(C)c(C2=C(OC(=O)CC(C)(C)C)C3(CCCC3)OC2=O)c(C)c1` [SPIROMESIFEN], the RatioLC50 (Bemisia tabaci [1]) is reported as 179, the RatioLC50 (Bemisia tabaci [2]) is reported as 323 and the RatioLC50 (Bemisia tabaci [3]) is reported as 73. The LC95 (Bemisia tabaci [4]) was 47.61 mg/L (≈ 129 µM), the LC50 (Bemisia tabaci [4]; Bemisia tabaci, GRMAL-RN, Nymph stage) was 6.7 mg/L (≈ 18.1 µM) and the LC95 (Bemisia tabaci [5]) was 50.31 mg/L (≈ 136 µM). It also gave an LC50 (Bemisia tabaci [5]; Bemisia tabaci, GRMAL-RP, Nymph stage) of 1.1 mg/L (≈ 2.97 µM), an LC95 (Bemisia tabaci [6]) of 44.79 mg/L (≈ 121 µM) and an LC50 (Bemisia tabaci [6]; Bemisia tabaci, GR192, Nymph stage) of 14 mg/L (≈ 37.8 µM). It also gave an LC95 (Bemisia tabaci [7]) of 49.19 mg/L (≈ 133 µM), an LC50 (Bemisia tabaci [7]; Bemisia tabaci, GR258, Nymph stage) of 12 mg/L (≈ 32.4 µM) and an LC95 (Bemisia tabaci [8]) of 69.44 mg/L (≈ 187 µM). For the same compound, the LC50 (Bemisia tabaci [8]; Bemisia tabaci, GR164, Nymph stage) was 12 mg/L (≈ 32.4 µM), the LC95 (Bemisia tabaci [9]) was 85.08 mg/L (≈ 230 µM) and the LC50 (Bemisia tabaci [9]; Bemisia tabaci, GR163, Nymph stage) was 11.6 mg/L (≈ 31.3 µM). It also gave an LC95 (Bemisia tabaci [10]) of 30.74 mg/L (≈ 83 µM), an LC50 (Bemisia tabaci [10]; Bemisia tabaci, GR259, Nymph stage) of 7.9 mg/L (≈ 21.3 µM) and an LC95 (Bemisia tabaci [11]) of 49.23 mg/L (≈ 133 µM). For the same compound, the LC50 (Bemisia tabaci [11]; Bemisia tabaci, GR194, Nymph stage) was 6.4 mg/L (≈ 17.3 µM), the LC95 (Bemisia tabaci [12]) was 21.41 mg/L (≈ 57.8 µM) and the LC50 (Bemisia tabaci [12]; Bemisia tabaci, GR188, Nymph stage) was 6.1 mg/L (≈ 16.5 µM). It also gave an LC95 (Bemisia tabaci [13]) of 139.9 mg/L (≈ 378 µM), an LC50 (Bemisia tabaci [13]; Bemisia tabaci, GR157, Nymph stage) of 5.4 mg/L (≈ 14.6 µM) and an LC95 (Bemisia tabaci [14]) of 18.62 mg/L (≈ 50.3 µM). It also gave an LC50 (Bemisia tabaci [14]; Bemisia tabaci, GR191, Nymph stage) of 5.1 mg/L (≈ 13.8 µM), an LC95 (Bemisia tabaci [15]) of 24.95 mg/L (≈ 67.3 µM) and an LC50 (Bemisia tabaci [15]; Bemisia tabaci, GR187, Nymph stage) of 4.6 mg/L (≈ 12.4 µM). It also gave an LC95 (Bemisia tabaci [16]) of 37.16 mg/L (≈ 100 µM), an LC50 (Bemisia tabaci [16]; Bemisia tabaci, GR165, Nymph stage) of 4.5 mg/L (≈ 12.1 µM) and a survival at 30 µg/mL (Bemisia tabaci [17]) of 27%. For the same compound, the survival at 30 µg/mL (Bemisia tabaci [18]) was 13%, the RatioLC50 (Bemisia tabaci [19]) was greater than 621 and the RatioLC50 (Bemisia tabaci [20]) was 1190. It also gave a RatioLC50 (Bemisia tabaci [21]) of 42, a RatioLC50 (Bemisia tabaci [22]) of 741 and a RatioLC50 (Bemisia tabaci [23]) of 478. It also gave a RatioLC50 (Bemisia tabaci [24]) of 142, a RatioLC50 (Bemisia tabaci [25]) of 105 and a RatioLC50 (Bemisia tabaci [26]) of 426. It also gave a RatioLC50 (Bemisia tabaci [27]) of 179, a RatioLC50 (Bemisia tabaci [28]) of 256 and a RatioLC50 (Bemisia tabaci [29]) of 101. The RatioLC50 (Bemisia tabaci [30]) was 958, the RatioLC50 (Bemisia tabaci [31]) was 369 and the RatioLC50 (Bemisia tabaci [32]) was 46. It also gave a RatioLC50 (Bemisia tabaci [33]) of 7, a RatioLC50 (Bemisia tabaci [34]) of 323 and a RatioLC50 (Bemisia tabaci [35]) of 247. It also gave a RatioLC50 (Bemisia tabaci [36]) of 353, a RatioLC50 (Bemisia tabaci [37]) of 120 and a RatioLC50 (Bemisia tabaci [38]) of 88. For the same compound, the RatioLC50 (Bemisia tabaci [39]) was 94.
